Measurements: US20030073618A1, “Compounds comprising disulfide-containing peptides and nitrogenous bases, and medical uses thereof” (priority 2001, published 2003)
Where two headings read alike, the source gives them in different places.

Experiments:
[1] = tested on: mycobacterium tuberculosis; conditions: for CD4+ / CD4/CD8 / CD8+ / IL-1 / IL-4 / IL-6 / IL-8 / IL-12 / Lymphocytes: blood immune test; for ESR / Erythrocytes / Hemoglobin / Leukocytes / Monocytes / Platelets / Segmented neutrophils / Stab neutrophils: general blood test
HIV = type: in vivo; set-up: Hemoglobin / Platelets / Leukocytes / ESR: unit not given beside the values; (CD25+) / HLA-DR / (CD16) / IgA / IgM / IgG / CIC / (CD20+) / CD4+ / CD8+: unit not given here; conditions: for Lymphocyte count / Weight gained / Karnovsky score: Ex. 13; for Karnovsky score: on admission 75; for Erythrocytes / Hemoglobin / Leukocytes / Monocytes / Platelets / Segmented neutrophils / Stab neutrophils / ESR: general blood test; for (CD16) / (CD20+) / (CD25+) / CD4+ / CD4/CD8 / CD8+ / CIC / HLA-DR / IgA / IgG / IgM: immune blood test
[2] = Ex. 16, on treatment completion

In the case of `N[C@@H](CCC(=O)N[C@@H](CSSC[C@H](NC(=O)CC[C@H](NP(=O)(O)OC[C@H]1O[C@@H](n2cnc3c(=O)[nH]cnc32)[C@H](O)[C@@H]1O)C(=O)O)C(=O)NCC(=O)[O-])C(=O)NCC(=O)[O-])C(=O)O.[Li+].[Li+]` [Example 16], the “CD4+” value ([1]; 19.12.98) was 860, the CD4/CD8 ([1]; 19.12.98) was 1.53 and the “CD8+” value ([1]; 19.12.98) was 563. The IL-1 ([1]; 19.12.98) was 46, the IL-4 ([1]; 19.12.98) was 37 and the IL-6 ([1]; 19.12.98) was 44. It also gave an IL-8 ([1]; 19.12.98) of 50, an IL-12 ([1]; 19.12.98) of 39 and a Lymphocytes ([1]; 19.12.98) of 1400. For the same compound, the “CD4+” value ([1]; 20.10.98) was 199, the CD4/CD8 ([1]; 20.10.98) was 0.56 and the “CD8+” value ([1]; 20.10.98) was 357. The IL-1 ([1]; 20.10.98) was 22, the IL-4 ([1]; 20.10.98) was 32 and the IL-6 ([1]; 20.10.98) was 16. It also gave an IL-8 ([1]; 20.10.98) of 23, an IL-12 ([1]; 20.10.98) of 14 and a Lymphocytes ([1]; 20.10.98) of 832. For the same compound, the “CD4+” value ([1]; 21.01.99) was 892, the CD4/CD8 ([1]; 21.01.99) was 1.50 and the “CD8+” value ([1]; 21.01.99) was 594. For the same compound, the IL-1 ([1]; 21.01.99) was 39, the IL-4 ([1]; 21.01.99) was 34 and the IL-6 ([1]; 21.01.99) was 39. It also gave an IL-8 ([1]; 21.01.99) of 48, an IL-12 ([1]; 21.01.99) of 47 and a Lymphocytes ([1]; 21.01.99) of 1680. For the same compound, the “CD4+” value ([1]; 21.11.98) was 527, the CD4/CD8 ([1]; 21.11.98) was 1.25 and the “CD8+” value ([1]; 21.11.98) was 422. It also gave an IL-1 ([1]; 21.11.98) of 29, an IL-4 ([1]; 21.11.98) of 30 and an IL-6 ([1]; 21.11.98) of 29. For the same compound, the IL-8 ([1]; 21.11.98) was 45, the IL-12 ([1]; 21.11.98) was 28 and the Lymphocytes ([1]; 21.11.98) was 1350. For the same compound, the ESR ([1]; 19.12.98) was 13, the Erythrocytes ([1]; 19.12.98) was 4.3 and the Hemoglobin ([1]; 19.12.98) was 132. The Leukocytes ([1]; 19.12.98) was 5.2, the Monocytes ([1]; 19.12.98) was 2 and the Platelets ([1]; 19.12.98) was 230. For the same compound, the Segmented neutrophils ([1]; 19.12.98) was 51, the Stab neutrophils ([1]; 19.12.98) was 1 and the ESR ([1]; 20.10.98) was 50. It also gave an Erythrocytes ([1]; 20.10.98) of 3.7, a Hemoglobin ([1]; 20.10.98) of 108 and a Leukocytes ([1]; 20.10.98) of 9.9. The Monocytes ([1]; 20.10.98) was 12, the Platelets ([1]; 20.10.98) was 260 and the Segmented neutrophils ([1]; 20.10.98) was 57. For the same compound, the Stab neutrophils ([1]; 20.10.98) was 12, the ESR ([1]; 21.01.99) was 11 and the Erythrocytes ([1]; 21.01.99) was 4.2. The Hemoglobin ([1]; 21.01.99) was 128, the Leukocytes ([1]; 21.01.99) was 6.8 and the Monocytes ([1]; 21.01.99) was 5. For the same compound, the Platelets ([1]; 21.01.99) was 210, the Segmented neutrophils ([1]; 21.01.99) was 50 and the Stab neutrophils ([1]; 21.01.99) was 3. The ESR ([1]; 21.11.98) was 27, the Erythrocytes ([1]; 21.11.98) was 4.2 and the Hemoglobin ([1]; 21.11.98) was 128. The Leukocytes ([1]; 21.11.98) was 5.2, the Monocytes ([1]; 21.11.98) was 4 and the Platelets ([1]; 21.11.98) was 210. It also gave a Segmented neutrophils ([1]; 21.11.98) of 53 and a Stab neutrophils ([1]; 21.11.98) of 6.
In the case of `N[C@@H](CCC(=O)N[C@@H](CSSC[C@H](NC(=O)CC[C@H](NP(=O)(O)OC[C@H]1O[C@@H](n2cnc3c(=O)[nH]cnc32)[C@H](O)[C@@H]1O)C(=O)O)C(=O)NCC(=O)[O-])C(=O)NCC(=O)[O-])C(=O)O.[Li+].[Li+]` [Li2-GSSG-IMP], the Karnovsky score ([1]; Ex. 16, in 2 months) was 75, the Temperature ([1]; Ex. 16, in 2 months, on admission 37.5) was 36.7 °C and the Weight gained ([1]; Ex. 16, in a month) was 4 kg. For the same compound, the Karnovsky score ([1]; Ex. 16, in a month, on admission 50, with antibacterial therapy) was 70, the “Bacterial discharge, in the vision field by microscopy” value ([1]; Ex. 16, in a month, on admission up to 100) was 2-4 and the Karnovsky score [1, 2] was 90. The Temperature [1, 2] was 36.6 °C and the “X-ray, destruction cavity” value ([1]; Ex. 16, on treatment completion, on admission 4×3 cm) was “destruction cavity in the left lung upper lobe healed”.
In the case of `Cc1cn([C@H]2C[C@H](O)[C@@H](COP(=O)(O)N[C@@H](CCC(=O)N[C@@H](CSSC[C@H](NC(=O)CC[C@H](N)C(=O)O)C(=O)NCC(=O)[O][Zn])C(=O)NCC(=O)[O][Zn])C(=O)O)O2)c(=O)[nH]c1=O` [Zn2-GSSG-TMP], the Viral load (HIV; 1-month treatment) was 66000 copies of HIV RNA/ml, the Lymphocyte count (HIV; after 1-month treatment) was 1276 and the Weight gained (HIV; after 1-month treatment) was 1.8 kg. The Karnovsky score (HIV; after 1-month treatment) was 80, the Lymphocyte count (HIV; after completion of treatment) was 2295 and the Weight gained (HIV; after completion of treatment) was 2.5 kg. The Karnovsky score (HIV; after completion of treatment) was 90, the Viral load (HIV; Initial value) was 80000 copies of HIV RNA/ml and the Viral load (HIV; Treatment completion) was 15000 copies of HIV RNA/ml. The Erythrocytes (HIV; 01.04.96) was 3.9, the Hemoglobin (HIV; 01.04.96) was 126 and the Leukocytes (HIV; 01.04.96) was 3.5. For the same compound, the Monocytes (HIV; 01.04.96) was 2, the Platelets (HIV; 01.04.96) was 180 and the Segmented neutrophils (HIV; 01.04.96) was 41. It also gave a Stab neutrophils (HIV; 01.04.96) of 3, an ESR (HIV; 03.04.96) of 21 and an Erythrocytes (HIV; 03.04.96) of 3.9. It also gave a Hemoglobin (HIV; 03.04.96) of 125, a Leukocytes (HIV; 03.04.96) of 2.6 and a Monocytes (HIV; 03.04.96) of 7. It also gave a Platelets (HIV; 03.04.96) of 170, a Segmented neutrophils (HIV; 03.04.96) of 47 and a Stab neutrophils (HIV; 03.04.96) of 8. It also gave an ESR (HIV; 13.03.96) of 18, an Erythrocytes (HIV; 13.03.96) of 5 and a Hemoglobin (HIV; 13.03.96) of 160. For the same compound, the Leukocytes (HIV; 13.03.96) was 2.4, the Monocytes (HIV; 13.03.96) was 2 and the Platelets (HIV; 13.03.96) was 200. For the same compound, the Segmented neutrophils (HIV; 13.03.96) was 48, the Stab neutrophils (HIV; 13.03.96) was 5 and the ESR (HIV; 15.05.96) was 12. The Erythrocytes (HIV; 15.05.96) was 4.2, the Hemoglobin (HIV; 15.05.96) was 136 and the Leukocytes (HIV; 15.05.96) was 4.5. It also gave a Monocytes (HIV; 15.05.96) of 3, a Platelets (HIV; 15.05.96) of 190 and a Segmented neutrophils (HIV; 15.05.96) of 49. For the same compound, the Stab neutrophils (HIV; 15.05.96) was 7, the ESR (HIV; 16.04.96) was 20 and the Erythrocytes (HIV; 16.04.96) was 4. For the same compound, the Hemoglobin (HIV; 16.04.96) was 129, the Leukocytes (HIV; 16.04.96) was 2.9 and the Monocytes (HIV; 16.04.96) was 2. It also gave a Platelets (HIV; 16.04.96) of 180, a Segmented neutrophils (HIV; 16.04.96) of 45 and a Stab neutrophils (HIV; 16.04.96) of 8. It also gave an ESR (HIV; 28.03.96) of 16, an Erythrocytes (HIV; 28.03.96) of 4.3 and a Hemoglobin (HIV; 28.03.96) of 136. For the same compound, the Leukocytes (HIV; 28.03.96) was 2.9, the Monocytes (HIV; 28.03.96) was 2 and the Segmented neutrophils (HIV; 28.03.96) was 35. For the same compound, the Stab neutrophils (HIV; 28.03.96) was 4, the “(CD16)” value (HIV; 03.04.96) was 198 and the “(CD20+)” value (HIV; 03.04.96) was 217. The “(CD25+)” value (HIV; 03.04.96) was 207, the “CD4+” value (HIV; 03.04.96) was 247 and the “CD4/CD8” value (HIV; 03.04.96) was 0.89. The “CD8+” value (HIV; 03.04.96) was 277, the CIC (HIV; 03.04.96) was 0.175 and the HLA-DR (HIV; 03.04.96) was 237. It also gave an IgA (HIV; 03.04.96) of 2.1, an IgG (HIV; 03.04.96) of 20 and an IgM (HIV; 03.04.96) of 4.6. For the same compound, the “(CD16)” value (HIV; 13.03.96) was 216, the “(CD20+)” value (HIV; 13.03.96) was 256 and the “(CD25+)” value (HIV; 13.03.96) was 226. For the same compound, the “CD4+” value (HIV; 13.03.96) was 276, the “CD4/CD8” value (HIV; 13.03.96) was 0.78 and the “CD8+” value (HIV; 13.03.96) was 354. It also gave a CIC (HIV; 13.03.96) of 0.09, an HLA-DR (HIV; 13.03.96) of 354 and an IgA (HIV; 13.03.96) of 1.8. For the same compound, the IgG (HIV; 13.03.96) was 18.8, the IgM (HIV; 13.03.96) was 2.6 and the “(CD16)” value (HIV; 15.05.96) was 505. For the same compound, the “(CD20+)” value (HIV; 15.05.96) was 390, the “(CD25+)” value (HIV; 15.05.96) was 482 and the “CD4+” value (HIV; 15.05.96) was 574. For the same compound, the “CD4/CD8” value (HIV; 15.05.96) was 0.96, the “CD8+” value (HIV; 15.05.96) was 597 and the CIC (HIV; 15.05.96) was 0.075. The HLA-DR (HIV; 15.05.96) was 665, the IgA (HIV; 15.05.96) was 1.5 and the IgG (HIV; 15.05.96) was 28. The IgM (HIV; 15.05.96) was 3.1, the “(CD16)” value (HIV; 17.04.96) was 332 and the “(CD20+)” value (HIV; 17.04.96) was 306. For the same compound, the “(CD25+)” value (HIV; 17.04.96) was 332, the “CD4+” value (HIV; 17.04.96) was 319 and the “CD4/CD8” value (HIV; 17.04.96) was 0.86. For the same compound, the “CD8+” value (HIV; 17.04.96) was 370, the CIC (HIV; 17.04.96) was 0.11 and the HLA-DR (HIV; 17.04.96) was 434. The IgA (HIV; 17.04.96) was 1.6, the IgG (HIV; 17.04.96) was 24 and the IgM (HIV; 17.04.96) was 5.2.
